Results reported in a melting point compilation (Tetko et al.; mined from patent text by program, amines drawn as free bases though some values may be those of a salt).

SMILES | melting point
OC(CCl)CSc1ncc(Cl)cn1 (stereo not drawn) | 99 °C
CC12C=CCC1C1CCC3=CC(=O)CCC3=C1CC2 (stereo not drawn) | 87 to 92 °C
CS(=O)(=O)c1c[nH]nc1C(CCCC(=O)C1CCCCC1)CO[N+](=O)[O-] (stereo not drawn) | 111 to 113 °C
O=C1CC(Cl)C(=O)N1C1CCCCC1 (stereo not drawn) | 63 to 64 °C
COc1ccc(N2CCOCC2)c2sc(NC(=O)N(C)C3CCOCC3)nc12 | 240 to 242 °C
O=C1CCCC2ON(Cc3ccccc3)C3C(CSC23)N1 (stereo not drawn) | 161 to 162 °C
CCc1cc(O)c2cccc(OC)c2n1 | 190 to 192 °C
CCOC(=O)C(Oc1ccccc1)c1ccccc1 (stereo not drawn) | 45 °C
COc1cc2c(cc1O)CC1c3c(cc(OC)c(O)c3-2)CCN1CC1CC1 (single isomer, unassigned; (+)) | 80 to 84 °C
CCOCc1nc2cnc3cc(Br)ccc3c2n1C[C@@H]1COC(C)(C)O1 | 90 to 91 °C
COC(=O)c1cncc(OC)n1 | 73 °C
COc1cccc(CCCC(=O)O)c1C | 105 to 107 °C
O=C(N[C@@H](Cc1ccccc1)C(=O)Nc1nncs1)OCc1ccccc1 | 78 to 83 °C
COC(=O)Cc1cc(N=O)c2[nH]ccc2c1 | 110 to 111 °C
CC1C(O)C(C(C)(C)O)C(=O)N1c1ccc(C#N)c(Cl)c1 (stereo not drawn) | 131 to 132 °C
BrCCOc1ccc(Cn2cccn2)cc1 | 63 to 65 °C
O=C1N=C(c2ccccc2OCC(F)(F)F)N=C2N=CN=C12 | 261 to 263 °C
CCn1c(=O)n(O)c(=O)c2c(F)c(F)c(N3CCCC3)c(F)c21 | 223 to 225 °C
O=C(NC1CCC(O)CC1)NC12CC3CC(CC(C3)C1)C2 (stereo not drawn) | 205 °C
CCOC(=O)C(C)c1cnc(Cl)c2cc(OC)ccc12 (stereo not drawn) | 126 to 128 °C
CN(O)C(=O)N1CCC(C(c2ccccc2)c2ccccc2)CC1 | 143 to 144 °C
CC12C=CCC1C1CCC3CCCCC3C1CC2 (stereo not drawn) | 165 to 166 °C
C=C(COC1CC2C3CCC4=CC(=O)C=CC4(C)C3(F)C(O)CC2(C)C1(O)C(=O)CCl)c1ccccc1 (stereo not drawn) | 212 to 214 °C
O=C(c1ccc(=O)[nH]c1)n1ccnc1 | 200 °C
IC#CCn1c2ccccc2c2ccccc21 | 151 to 152 °C

SMILES | melting point
O=C(CBr)c1cc(OCc2ccccc2)c(OCc2ccccc2)c(OCc2ccccc2)c1 | 112 to 113 °C
CC(O)=C(C#N)C(=O)Nc1ccc(Cl)cc1 | 209 to 211 °C
COC(=O)c1cc(N(C)C)c(N(C)C)c(N(C)C)c1 | 61 to 63 °C
COC(=O)CCc1cc(C(C)(C)C)c2oc(-c3ccc(-c4nc5cc(CCC(=O)OC)cc(C(C)(C)C)c5o4)s3)nc2c1 | 144 to 145 °C
COCCOc1cc(NC(=O)OC(C)(C)C)c([N+](=O)[O-])cc1C#Cc1ccccc1 | 118 to 119 °C
COC(=O)c1ccc(Oc2cc3c(cc2Br)C(C)(C)CCC3(C)C)cc1 | 135 to 136 °C
CC(=O)NC[C@H]1CN(c2cc(F)c(N3CCC(n4nnc(N5CCN(C#N)CC5)n4)CC3)c(F)c2)C(=O)O1 | 198 to 200 °C
OCc1ccc(-c2cccc(-c3cn([C@H]4CN5CCC4CC5)nn3)c2)cc1 | 214 °C
CC(C)(CCCCCCCC(=O)CCCCCCCC(C)(C)C(=O)O)C(=O)O | 74 to 77 °C
COP(=O)(Cc1c(C)ccc2ccccc12)OC | 54 to 57 °C
OC(CON=C1CCCc2sccc21)CN1CCCC1 (stereo not drawn) | 136 °C
CCC(CC)N(C[C@@H]1CCC[C@H](CN(C(=O)Nc2ccc(N(C)C)cc2)C(CC)CC)C1)C(=O)Nc1ccc(N(C)C)cc1 | 157 to 160 °C
CC(O)CNc1nc(NCc2ccccc2N)c2ncn(C(C)C)c2n1 (racemic) | 175 to 179 °C
Cc1c(F)c([N+](=O)[O-])cc2oc(=O)[nH]c12 | 194 to 196 °C
CCNC1=CC(=O)CC1 | 136 °C
CCOC(=O)C1=C(C)NC(C)=C(C(=O)OCC)C1c1ccc(OC(C)(C)C(=O)OCC)cc1 | 215 °C
c1c(C(CN2CCNCC2)N2CCNCC2)nc(N2CCCC2)nc1N1CCCC1 (stereo not drawn) | 148 to 149 °C
COc1ccc(CN(CCN(C)CCCCCCN=C(NC#N)NCCSCc2csc(NC(=N)N)n2)c2ccccn2)cc1 | 52 °C
CCOC(=O)COc1cc(-n2nc(C)n(C(F)F)c2=O)c(Cl)cc1Cl | 118 to 119 °C
Clc1cc(Cl)c(Cl)c(CBr)c1 | 40 to 42 °C
CC(C(=O)O)c1cccc(C(=O)c2cc3cc(C(=O)O)sc3s2)c1 (stereo not drawn) | 244 °C
CCCCOc1c(CNC(=O)OC(C)(C)C)n(CC(C)C)c(=O)c2ccc(C(=O)O)cc12 | 185 to 186 °C
O=C1CCN(c2ccncc2)CC1 | 101 to 104 °C
CC(=O)Nc1ccc([N+]([O-])=NC#N)cc1 | 240 to 242 °C

Second part, the compound after the results:

melting point | SMILES
208 to 211 °C | COc1ccc(/C=C/C(=O)N2CC(CCl)c3c2cc(O)c2ncccc32)cc1 (stereo not drawn)
242 to 244 °C | O=C(O)c1ccc(C(=O)/C=C/c2ccc(F)c(-c3cccs3)c2)cc1
150 to 151 °C | CCOC(=O)c1c(CCO)nc2cc(OC)c(OC)cc2c1-c1ccc(OC)c(OC)c1
136 °C | C[C@@H]1CCCN1CCCOc1ccc(-c2ccc(S(=O)(=O)Cc3ccccc3)nn2)cc1
70 to 71 °C | CCOC(=O)C(Cc1ccccc1)(Cc1ccc([N+](=O)[O-])cc1)C(=O)OCC
199 to 202 °C | N#Cc1ccc(-c2ccc(OCC(CN3C(=O)c4ccccc4C3=O)N(O)C=O)cc2)cc1 (stereo not drawn)
279 to 281 °C | Cc1nc2nn(-c3ccccc3)c(N)c2c(=O)[nH]1
172 °C | CCN(CC)C(=O)c1ccc(Cl)c(C2(C)C(=O)N(Cc3ccc(OC)cc3OC)c3ccccc32)c1 (stereo not drawn)
77 to 78 °C | O=C(COc1ccc(Cc2ccc(Cl)cc2)cc1)OCc1cccnc1
134 to 136 °C | Cc1nc2cc(S(=O)(=O)n3c(COC(C)(C)C(=O)O)cc4cc(Cl)ccc43)ccc2s1
285 to 290 °C | CC12CCC3c4ccc(C(=O)O)cc4CCC3C1CCC2C(=O)CCc1ccc(C(=O)O)cc1 (stereo not drawn)
180 to 182 °C | CN1Cc2ccc(OCCCCN3CCN(c4cccc5ccccc45)CC3)nc2NC1=O
225 °C | COc1ccc(C=CC(=O)c2ccc(O)c(CC(=O)O)c2)cc1OC
213 to 215 °C | Cc1nc2c(OCc3ccccc3)cc(CO)cn2c1C
155 °C | CC(C)(C)OC(=O)N1CCC(c2cn(-c3ccc(F)cc3)c3ccc(C#N)cc23)CC1
173 to 174 °C | Cc1ccccc1N1CCc2c(N)nc3c(C)cccc3c21
122 to 123 °C | COC(=O)c1ccccc1CSc1c(O)cc(-c2ccccc2)oc1=O
237 to 239 °C | CC(C)N1CC(C(S)Oc2cccc3cnccc23)OC1=O (stereo not drawn)
97 to 99 °C | CC(C)(C)OC(=O)N1CCC(C(=O)Nc2ccccc2Oc2ccc(Cl)cc2)CC1
228 to 230 °C | CNc1nc(NCc2ccc(NC(=O)c3ccc(F)cc3)cc2)c2c(C)cccc2n1
133 to 134 °C | O=C(O)CCCC(Nc1ccccc1)c1ccc(Cl)cc1 (stereo not drawn)
149 to 151 °C | COC(=O)CNC(=O)c1[nH]c(C)c(-c2nc3ccc(C(=O)c4ccccc4)cc3[nH]2)c1C
156 to 157 °C | CCCCOc1c(CN2C(=O)c3ccccc3C2=O)n(CC2CC2)c(=O)c2ccc(Br)cc12
113 to 114 °C | CC(C)c1nn(-c2ccc(C(F)(F)F)cn2)cc1CCCCOc1cc(CCC(=O)O)n(C)n1
96 °C | COc1ccc(-c2cc(CCC(=O)O)sc2-c2ccc(OC)cc2)cc1

melting point | SMILES
176 to 178 °C | COc1cc(OC)nc(NC(=O)NS(=O)(=O)c2ccccc2C(CF)OC(C)=O)n1 (stereo not drawn)
67 to 69 °C | CCCCOCCOc1ccc(-c2ccc(N3CC(C)C(C)C3)c(C=C(C)C(=O)OCC)c2)cc1 (stereo not drawn)
170 °C | N#Cc1ccc(CNC(=O)c2ccc(C=O)cc2)cc1
61 to 62 °C | CCOC(=O)CCCC(=O)c1ccc(Oc2ccccc2)cc1
214 °C | NS(=O)(=O)c1ccc(-c2cccc(-c3nc(-c4ccc(C(F)(F)F)c(F)c4)cc(C(F)(F)F)n3)c2)s1
130 °C | Cc1cccc(C(=O)Nc2ccc(N3CCN(Cc4ccc[nH]4)CC3)nc2)c1-c1ccc(C(C)C)cc1
73 °C | CCc1ccc(-c2ncccc2S(=O)(=O)Nc2ncc(C)nc2OC)cc1
178 to 180 °C | Cc1cc2c(-c3cccc(-c4noc(=S)[nH]4)c3)c(CC(=O)Nc3ccc(F)cc3C(F)(F)F)c(=O)oc2cc1Cl
167 to 169 °C | CNC1CC=C(c2c[nH]c3ccc(NC(=N)c4cccs4)cc23)CC1 (stereo not drawn)
232 °C | CCN(C(C)=O)c1ccc2c(c1)Cc1c-2[nH]c2ccccc12
160 to 161 °C | COc1cccc2c(-c3ccccc3)c([N+](=O)[O-])oc12
151 to 152 °C | CCOc1nn(-c2ccc(C(F)(F)F)cn2)cc1CCCOc1cc(CC(=O)O)n(C)n1
116 to 118 °C | CN(C)C=C1CCc2ccn(Cc3ccccc3)c2C1=O
196 to 197 °C | Cc1cc(C)c(Nc2nc(C)ccc2S(=O)(=O)c2cccc(O)c2)c(C)c1
> 350 °C | O=c1[nH]c2cc(Cl)ccc2c(O)c1-c1ccc2ccccc2c1
90 to 93 °C | CCOC(=O)N(c1ccc(Cl)cc1)c1ccccc1[N+](=O)[O-]
89 to 91 °C | Oc1ccc(Oc2ccc(OCC(O)CCc3cccnc3)cc2)cc1 (stereo not drawn)
151 to 154 °C | Cc1ccc(-c2cn(C)cc(-c3ccccc3C)c2=O)cc1
144 to 145 °C | O=c1oc2ccc(-c3ccc(F)cc3F)cc2c(=O)n1-c1cc(F)ccc1F
220 to 222 °C | O=C(Nc1ccc2cc(CN3CCCCC3)ccc2c1)c1ccc(-c2ccc(Cl)cc2)cc1
120 to 123 °C | O=C(CC1(c2ccccc2)CCCCC1)C(=O)Nc1ccc2c(c1)COC2=O
275 to 278 °C | Cc1cc(C)cc(-c2nc(NC(=O)C3CCCC3)sc2-c2ccncc2)c1
128 to 129 °C | CS(=O)(=O)c1ccc(-c2cnn(-c3ccc(F)c(F)c3)c(=O)c2CCC=C2CC2)cc1
212 to 214 °C | COc1ccc(NC(=O)c2cc(N)ccc2NC(=O)c2ccc(C(C)(C)C)cc2)cc1
